# Assay results published in US6350477B1, “Food material containing antioxidant ingredient derived from citrus fruits” (Pokka Corporation, priority 1998, dated 2002).
# Assays:
# [1] = Mutagenicity test according to Rec-assay; assay type: cell-based
# Method: (§1) Eriocitrin is an ingredient derived from natural products, and it is contained in a juice of citrus fruits such as lemon and lime which have been already eaten in a large amount of several tens of milligrams per 100 ml. There is no problem with a safety to humans. It is negative in the mutagenicity test according to Rec-assay or Ames assay. Thus, the safety has been identified.
# [2] = Mutagenicity test according to Ames assay; assay type: cell-based
# Method: as §1
compound,measurement,setting,value
"C[C@@H]1O[C@@H](OC[C@H]2O[C@@H](Oc3cc(O)c4c(c3)O[C@H](c3ccc(O)c(O)c3)CC4=O)[C@H](O)[C@@H](O)[C@@H]2O)[C@H](O)[C@H](O)[C@H]1O [Eriocitrin, eriodictyol-7-rutinoside]",mutagenicity test according to Rec-assay,[1],negative
same,mutagenicity test according to Ames assay,[2],negative
